Test results: patent US20250250302A1, “SYNTHESIS OF SELF-ASSEMBLING ARTIFICIAL PROTEINS UTILIZING A HOST-GUEST SYSTEM AND USES THEREOF” (Indian Institute of Science Education and Research, Pune …, priority 2024, published 2025)

Experiment: solubility test of α, β, and γcyclodextrin in water
Conditions: compared with β cyclodextrin

OC[C@H]1O[C@@H]2O[C@H]3[C@H](O)[C@@H](O)[C@@H](O[C@H]4[C@H](O)[C@@H](O)[C@@H](O[C@H]5[C@H](O)[C@@H](O)[C@@H](O[C@H]6[C@H](O)[C@@H](O)[C@@H](O[C@H]7[C@H](O)[C@@H](O)[C@@H](O[C@H]1[C@H](O)[C@H]2O)O[C@@H]7CO)O[C@@H]6CO)O[C@@H]5CO)O[C@@H]4CO)O[C@@H]3CO [a]
solubility in water: better solubility in water compared to β cyclodextrin
